In US12391679B2, “Benzamide-substituted bicyclic imidazo- and pyrazolo-fused -pyridine, -pyrimide, and -pyridazine compounds for treatment of inflammatory diseases” (ONCO3R Therapeutics BV, priority 2019, dated 2025):

How the values were obtained:
Format in all cases: biochemical
[1] = target: T1, SIK3 (Homo sapiens, UniProt Q9Y2K2); assay: ADP-Glo kinase assay, SIK3
T1 construct: purchased SignalChem S12-11G-100
Experimental: (§1) The ADP-Glo™ kinase assay is a luminescent technology assay which measures the ADP formed from a kinase reaction. […] In a second step the kinase reactions are terminated and all the remaining ATP is depleted. In a final step the ADP is converted into ATP and this newly synthesized ATP is measured by using a luciferase/luciferin reaction. The generated light is measured using an Envision plate reader, wherein the luminescent signal obtained positively correlates with the kinase activity.
(§2) 1% DMSO and 10 μM staurosporine final concentrations are used as negative and positive controls.
(§3) 2 μL enzyme-substrate mixture is added to the assay plates.
(§4) The reaction is started by adding 2 μL diluted ATP on the assay plates. Plates are centrifuged for a few seconds at 1000 rpm and gently shaken for […] followed by an incubation at RT for 120 min.
(§5) The reactions are stopped and the unconsumed ATP is depleted by adding 5 μL ADP-Glo Reagent (Promega, Cat #V9120) to the reaction. The plates are centrifuged for a few seconds at 1000 rpm and incubated at RT for 40 min (ATP depletion).
(§6) The ADP is converted to ATP and luciferase and luciferin is introduced to detect ATP by adding 10 μL Kinase Detection Reagent (Promega, Cat #V913B+V914r) to the reaction. The plates are centrifuged for a few seconds at 1000 rpm and incubated at RT for 30 min (ADP detection).
(§7) Luminescence is measured on an Envision plate reader (PerkinElmer Inc.).

[2] = target: T2, SIK2 (Homo sapiens, UniProt Q9H0K1); assay: ADP-Glo kinase assay, SIK2
T2 construct: purchased ThermoFisher Scientific PV4792
Experimental: as §1, §2, §3, §4, §5, §6, §7

[3] = target: T3, SIK1 (Homo sapiens, UniProt P57059); assay: ADP-Glo kinase assay, SIK1
T3 construct: purchased Carna Biosciences 02-131
Experimental: as §1, §2, §3, §4, §5, §6, §7

T2 sequence (Q9H0K1 whole entry): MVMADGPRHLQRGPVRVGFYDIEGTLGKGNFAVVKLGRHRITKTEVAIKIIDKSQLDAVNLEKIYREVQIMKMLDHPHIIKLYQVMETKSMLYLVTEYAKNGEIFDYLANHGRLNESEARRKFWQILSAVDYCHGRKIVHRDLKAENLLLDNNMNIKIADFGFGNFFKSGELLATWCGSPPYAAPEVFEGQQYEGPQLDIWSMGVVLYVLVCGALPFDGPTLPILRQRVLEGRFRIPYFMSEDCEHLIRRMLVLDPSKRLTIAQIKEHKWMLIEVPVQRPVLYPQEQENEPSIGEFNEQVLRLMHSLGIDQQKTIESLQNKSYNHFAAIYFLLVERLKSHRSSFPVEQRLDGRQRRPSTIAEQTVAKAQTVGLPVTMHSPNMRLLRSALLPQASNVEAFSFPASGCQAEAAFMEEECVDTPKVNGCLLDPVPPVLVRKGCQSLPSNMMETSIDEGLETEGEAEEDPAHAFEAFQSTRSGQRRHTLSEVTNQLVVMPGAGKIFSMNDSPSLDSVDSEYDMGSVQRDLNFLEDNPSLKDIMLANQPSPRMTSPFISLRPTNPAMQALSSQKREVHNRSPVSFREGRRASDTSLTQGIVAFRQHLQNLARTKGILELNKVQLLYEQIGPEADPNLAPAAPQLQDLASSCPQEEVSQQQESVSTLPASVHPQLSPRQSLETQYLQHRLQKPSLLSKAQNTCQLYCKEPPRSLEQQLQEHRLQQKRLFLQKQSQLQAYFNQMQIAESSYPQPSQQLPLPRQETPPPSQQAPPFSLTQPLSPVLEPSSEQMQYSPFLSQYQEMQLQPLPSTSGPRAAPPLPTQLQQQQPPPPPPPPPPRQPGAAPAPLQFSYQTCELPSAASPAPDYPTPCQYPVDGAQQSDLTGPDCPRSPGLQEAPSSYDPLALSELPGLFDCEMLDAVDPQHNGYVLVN
T3 sequence (P57059 whole entry): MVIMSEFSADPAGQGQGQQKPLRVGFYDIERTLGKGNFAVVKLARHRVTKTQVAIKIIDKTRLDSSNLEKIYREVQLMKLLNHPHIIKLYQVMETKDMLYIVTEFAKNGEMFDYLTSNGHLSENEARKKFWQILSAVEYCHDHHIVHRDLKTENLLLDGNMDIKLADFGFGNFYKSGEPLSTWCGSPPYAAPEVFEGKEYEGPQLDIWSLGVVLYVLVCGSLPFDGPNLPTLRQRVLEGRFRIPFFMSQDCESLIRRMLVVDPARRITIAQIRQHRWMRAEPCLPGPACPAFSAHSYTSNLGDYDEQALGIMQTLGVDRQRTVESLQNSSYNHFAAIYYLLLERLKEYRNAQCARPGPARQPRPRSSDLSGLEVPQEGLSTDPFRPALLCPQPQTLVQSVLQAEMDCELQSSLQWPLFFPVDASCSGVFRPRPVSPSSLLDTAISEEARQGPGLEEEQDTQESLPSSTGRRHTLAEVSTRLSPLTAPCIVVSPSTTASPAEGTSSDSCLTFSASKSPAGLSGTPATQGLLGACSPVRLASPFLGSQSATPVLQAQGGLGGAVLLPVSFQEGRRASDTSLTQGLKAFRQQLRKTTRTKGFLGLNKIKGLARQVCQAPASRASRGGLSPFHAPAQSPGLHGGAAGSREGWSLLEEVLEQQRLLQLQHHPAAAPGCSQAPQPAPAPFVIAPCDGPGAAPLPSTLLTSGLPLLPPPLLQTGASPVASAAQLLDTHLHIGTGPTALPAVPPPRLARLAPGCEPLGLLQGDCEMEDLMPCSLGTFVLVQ
T1 sequence (Q9Y2K2 59-365 limits assumed): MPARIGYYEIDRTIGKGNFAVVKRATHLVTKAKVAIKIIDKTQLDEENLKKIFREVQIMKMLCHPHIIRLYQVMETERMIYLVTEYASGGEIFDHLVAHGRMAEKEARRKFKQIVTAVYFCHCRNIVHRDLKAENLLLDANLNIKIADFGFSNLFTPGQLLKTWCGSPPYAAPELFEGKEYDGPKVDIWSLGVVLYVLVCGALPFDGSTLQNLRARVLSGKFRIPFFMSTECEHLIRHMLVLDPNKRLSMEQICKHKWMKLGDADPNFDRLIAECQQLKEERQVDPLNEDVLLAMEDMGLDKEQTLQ

SMILES	IC50 [1]	IC50 [2]	IC50 [3]
COc1cc(-c2cnc3cc(C(C)(O)C4CCOCC4)ccn23)cc(OC(F)F)c1C(=O)NC1CC1 (stereo not drawn) [Cpd 134, N-cyclopropyl-2-(difluoromethoxy)-4-[7-(1-hydroxy-1-tetrahydropyran-4-yl-ethyl)imidazo[1,2-a]pyridin-3-yl]-6-methoxy-benzamide]	10 to 100 nM	> 500 nM	> 500 nM
C=CCC(C#N)(CC=C)c1ccn2c(-c3cc(OC)c(C(=O)NC4CC4)c(OC(F)F)c3)cnc2c1 [Cpd 36, 4-[7-(1-allyl-1-cyano-but-3-enyl)imidazo[1,2-a]pyridin-3-yl]-N-cyclopropyl-2-(difluoromethoxy)-6-methoxy-benzamide]	10 to 100 nM	> 500 nM	> 500 nM
COc1cc(-c2cnc3cc(C(C)(C)C#N)ccn23)cc(OC(F)F)c1C(=O)N1CCC(O)CC1 [Cpd 41, 2-[3-[3-(difluoromethoxy)-4-(4-hydroxypiperidine-1-carbonyl)-5-methoxy-phenyl]imidazo[1,2-a]pyridin-7-yl]-2-methyl-propanenitrile]	> 500 nM	> 500 nM	> 500 nM
COc1cc(-c2cnc3cc(C4CCCN4C(C)C)ccn23)cc(OC(F)F)c1C(=O)NC1CC1 (stereo not drawn) [Cpd 197, N-cyclopropyl-2-(difluoromethoxy)-4-[7-(1-isopropylpyrrolidin-2-yl)imidazo[1,2-a]pyridin-3-yl]-6-methoxy-benzamide]	10 to 100 nM	10 to 100 nM	100 to 500 nM
COc1cc(-c2cnc3cc(C4CN(C)C4)ccn23)cc(OC(F)F)c1C(=O)NC1CC1 [Cpd 91, N-cyclopropyl-2-(difluoromethoxy)-6-methoxy-4-[7-(1-methylazetidin-3-yl)imidazo[1,2-a]pyridin-3-yl]benzamide]	10 to 100 nM	100 to 500 nM	> 500 nM
COc1cc(-c2cnc3cc(C(C)(C)C#N)ccn23)cc(OC(F)F)c1C(=O)N1CC(O)(C(F)(F)F)C1 [Cpd 75, 2-[3-[3-(difluoromethoxy)-4-[3-hydroxy-3-(trifluoromethyl)azetidine-1-carbonyl]-5-methoxy-phenyl]imidazo[1,2-a]pyridin-7-yl]-2-methyl-propanenitrile]	0.01 to 10 nM	100 to 500 nM	> 500 nM
COc1cc(-c2cnc3cc(C(C)(C)C#N)ccn23)cc(OC(F)F)c1C(=O)N1CCC(OC)CC1 [Cpd 46, 2-[3-[3-(difluoromethoxy)-5-methoxy-4-(4-methoxypiperidine-1-carbonyl)phenyl]imidazo[1,2-a]pyridin-7-yl]-2-methyl-propanenitrile]	> 500 nM	> 500 nM	> 500 nM
COc1cc(-c2cnc3cc(C4(C#N)CN(C(C)=O)C4)ccn23)cc(OC(F)F)c1C(=O)NC1CC1 [Cpd 122, 4-[7-(1-acetyl-3-cyano-azetidin-3-yl)imidazo[1,2-a]pyridin-3-yl]-N-cyclopropyl-2-(difluoromethoxy)-6-methoxy-benzamide]	10 to 100 nM	> 500 nM	> 500 nM
COc1cc(-c2cnc3cc(C4(C(=O)NCCO)CC4)ccn23)cc(OC(F)F)c1C(=O)NC1CC1 [Cpd 147, N-cyclopropyl-2-(difluoromethoxy)-4-[7-[1-(2-hydroxyethylcarbamoyl)cyclopropyl]imidazo[1,2-a]pyridin-3-yl]-6-methoxy-benzamide]	10 to 100 nM	> 500 nM	> 500 nM
COC(=O)C(C)(C#N)c1ccn2c(-c3cc(OC)c(C(=O)NC4CC4)c(OC(F)F)c3)cnc2c1 (stereo not drawn) [Cpd 184, methyl 2-cyano-2-[3-[4-(cyclopropylcarbamoyl)-3-(difluoromethoxy)-5-methoxy-phenyl]imidazo[1,2-a]pyridin-7-yl]propanoate]	> 500 nM	> 500 nM	> 500 nM
COc1cc(-c2cnc3cc(C(C)N4CC(F)(F)C4)ccn23)cc(OC(F)F)c1C(=O)NC1CC1 (stereo not drawn) [Cpd 156, N-cyclopropyl-4-[7-[1-(3,3-difluoroazetidin-1-yl)ethyl]imidazo[1,2-a]pyridin-3-yl]-2-(difluoromethoxy)-6-methoxy-benzamide]	10 to 100 nM	> 500 nM	> 500 nM
COC(=O)C(F)(F)c1ccn2c(-c3cc(OC)c(C(=O)NC4CC4)c(OC(F)F)c3)cnc2c1 [Cpd 131, methyl 2-[3-[4-(cyclopropylcarbamoyl)-3-(difluoromethoxy)-5-methoxy-phenyl]imidazo[1,2-a]pyridin-7-yl]-2,2-difluoro-acetate]	0.01 to 10 nM	> 500 nM	> 500 nM
CCC(O)(CC)c1ccn2c(-c3cc(OC)c(C(=O)NC4CC4)c(OC(F)F)c3)cnc2c1 [Cpd 124, N-cyclopropyl-2-(difluoromethoxy)-4-[7-(1-ethyl-1-hydroxy-propyl)imidazo[1,2-a]pyridin-3-yl]-6-methoxy-benzamide]	100 to 500 nM	> 500 nM	> 500 nM
COCC1(NC(=O)c2c(OC)cc(-c3cnc4cc(C(C)(C)C#N)ccn34)cc2OC(F)F)CC1 [Cpd 81, 4-[7-(1-cyano-1-methyl-ethyl)imidazo[1,2-a]pyridin-3-yl]-2-(difluoromethoxy)-6-methoxy-N-[1-(methoxymethyl)cyclopropyl]benzamide]	> 500 nM	> 500 nM	> 500 nM
COc1cc(-c2cnc3cc(C(C)(C)N)ccn23)cc(OC)c1C(=O)NCC(F)(F)F [Cpd 55, 4-[7-(1-amino-1-methyl-ethyl)imidazo[1,2-a]pyridin-3-yl]-2,6-dimethoxy-N-(2,2,2-trifluoroethyl)benzamide]	10 to 100 nM	> 500 nM	> 500 nM
CCN(CC)CC(C)(C)c1ccc2c(-c3cc(OC)c(C(=O)N[C@@H]4C[C@@H]4F)c(OC(F)F)c3)cnn2c1 [Cpd 276, 4-[6-[2-(diethylamino)-1,1-dimethyl-ethyl]pyrazolo[1,5-a]pyridin-3-yl]-2-(difluoromethoxy)-N-[(1R,2S)-2-fluorocyclopropyl]-6-methoxy-benzamide]	10 to 100 nM	> 500 nM	> 500 nM
COc1cc(-c2cnc3cc(C(C)(C)C#N)ccn23)cc(OC(F)F)c1C(=O)NCC1CCC1 [Cpd 90, 4-[7-(1-cyano-1-methyl-ethyl)imidazo[1,2-a]pyridin-3-yl]-N-(cyclobutylmethyl)-2-(difluoromethoxy)-6-methoxy-benzamide]	10 to 100 nM	> 500 nM	> 500 nM
COc1cc(-c2cnc3cc(C(C)(C)C#N)ccn23)cc(OC(F)F)c1C(=O)N1CCC1CO (stereo not drawn) [Cpd 105, 2-[3-[3-(difluoromethoxy)-4-[2-(hydroxymethyl)azetidine-1-carbonyl]-5-methoxy-phenyl]imidazo[1,2-a]pyridin-7-yl]-2-methyl-propanenitrile]	100 to 500 nM	> 500 nM	> 500 nM
COc1cc(-c2cnc3cc(C(C)(C)OC)ncn23)cc(OC(F)F)c1C(=O)NC1CC1 [Cpd 118, N-cyclopropyl-2-(difluoromethoxy)-6-methoxy-4-[7-(1-methoxy-1-methyl-ethyl)imidazo[1,2-c]pyrimidin-3-yl]benzamide]	10 to 100 nM	> 500 nM	> 500 nM
COc1cc(-c2cnc3cc(C(C)(C)O)ncn23)cc(OC(F)F)c1C(=O)NC1CC1 [Cpd 119, N-cyclopropyl-2-(difluoromethoxy)-4-[7-(1-hydroxy-1-methyl-ethyl)imidazo[1,2-c]pyrimidin-3-yl]-6-methoxy-benzamide]	100 to 500 nM	> 500 nM	> 500 nM
COc1cc(-c2cnc3cc(C(C)(C)C#N)ccn23)cc(OC(F)F)c1C(=O)N[C@H]1CCCC[C@@H]1N [Cpd 92, N-[(1S,2S)-2-aminocyclohexyl]-4-[7-(1-cyano-1-methyl-ethyl)imidazo[1,2-a]pyridin-3-yl]-2-(difluoromethoxy)-6-methoxy-benzamide]	10 to 100 nM	> 500 nM	> 500 nM
COc1cc(-c2cnc3cc(C4(CN5CCOCC5)CC4)ccn23)cc(OC(F)F)c1C(=O)NC1CC1 [Cpd 145, N-cyclopropyl-2-(difluoromethoxy)-6-methoxy-4-[7-[1-(morpholinomethyl)cyclopropyl]imidazo[1,2-a]pyridin-3-yl]benzamide]	100 to 500 nM	> 500 nM	> 500 nM
COc1cc(-c2cnc3cc(C(C)(C)C#N)ccn23)cc2c1C(=O)NC2 [Cpd 111, 2-[3-(7-methoxy-1-oxo-isoindolin-5-yl)imidazo[1,2-a]pyridin-7-yl]-2-methyl-propanenitrile]	10 to 100 nM	> 500 nM	> 500 nM
COc1cc(-c2cnc3cc(C(C)(C)C#N)ccn23)cc(OC(F)F)c1C(=O)NC1COC1 [Cpd 43, 4-[7-(1-cyano-1-methyl-ethyl)imidazo[1,2-a]pyridin-3-yl]-2-(difluoromethoxy)-6-methoxy-N-(oxetan-3-yl)benzamide]	10 to 100 nM	> 500 nM	> 500 nM
